The values below come from article PMC12405493, “Selective ubiquitination of drug-like small molecules by the ubiquitin ligase HUWE1” (Nature Communications, 2025).

One series has as its target T1, HUWE1^FL (Homo sapiens, UniProt Q7Z6Z7).
T1 construct: made in house; host or cells: HEK293T (transient transfection, anti-Flag purification, SEC)
The experiment in a line: HUWE1^FL multi-turnover ubiquitination reactions without protein substrate (autoubiquitination, free Ub chains). It counts as biochemical. As to conditions: without protein substrate; varying concentrations. As to the method:
HUWE1^HECT multi-turnover ubiquitination reactions were performed for 30 minutes (unless stated otherwise) with 200 nM UBA1, 5 μM UBE2L3 or UBE2D3 (as specified), 1 μM HUWE1^HECT and 30 μM Ub in 25 mM HEPES (pH 7.5), 100 mM NaCl, 3 mM MgCl2, and 0.5 mM TCEP. HUWE1^FL multi-turnover ubiquitination reactions included 50 nM UBA1, 2.5 μM UBE2L3, 0.05 μM HUWE1^FL, 0.5 μM MCL1 (or 0.5 μM H2B or 1 μM FOXP3) and 20 μM Ub in 20 mM HEPES (pH 7.5), 100 mM NaCl, 3 mM MgCl2, and 0.5 mM TCEP. All multi-turnover reactions were started by the addition of 1 mM ATP, incubated at 30 °C, quenched with SDS-loading dye. If not stated otherwise, HUWE1^FLautoubiquitination reactions were incubated for 20 minutes. Substrate ubiquitination reactions with MCL1 or H2B were incubated for 10 and 20 min, respectively; those with FOXP3 for 30 min. Those reactions that were monitored by fluorescence contained a fluorescent Ub tracer (IRDye 800CW maleimide; LI-COR)[55] and were monitored using an Odyssey CLx scanner (LI-COR), followed by Coomassie staining. In the fluorescence images, only those marker bands are labeled (in kDa) that are visible by fluorescence; all marker bands are labeled in the Coomassie-stained images. Statistical analyses were performed with Prism 9 v.9.3.1 (GraphPad).

Series [1] concerns HUWE1^HECT. On the set-up: method as in PMID 25253726. As to conditions: in vitro; read-out: IC50 of HUWE1^HECT inhibition; cited from earlier work.
The target of series [2] is T2, HUWE1^HECT (Homo sapiens, UniProt Q7Z6Z7).
T2 construct: the isolated HECT domain of HUWE1 (HUWE1^HECT); made in house
T2 sequence (Q7Z6Z7 3993-4374): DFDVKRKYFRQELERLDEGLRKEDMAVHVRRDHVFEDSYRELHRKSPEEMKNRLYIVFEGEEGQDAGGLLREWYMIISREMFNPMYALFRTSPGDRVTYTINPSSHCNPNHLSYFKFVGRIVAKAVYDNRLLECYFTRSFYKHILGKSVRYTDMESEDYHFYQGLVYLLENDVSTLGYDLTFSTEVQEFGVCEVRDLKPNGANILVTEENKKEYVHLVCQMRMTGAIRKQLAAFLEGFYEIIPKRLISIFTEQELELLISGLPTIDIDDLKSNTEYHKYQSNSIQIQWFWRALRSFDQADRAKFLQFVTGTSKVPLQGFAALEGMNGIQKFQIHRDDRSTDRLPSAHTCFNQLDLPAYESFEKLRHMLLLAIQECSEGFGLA
The experiment in a line: Analytical SEC / intact protein MS of HUWE1^HECT-driven compound ubiquitination. The series is classed as biochemical. As to conditions: for Compound ubiquitination by HUWE1^HECT (SEC, intact protein MS): + ATP, WT Ub; for Inhibitor ubiquitination activity of HUWE1^HECT compared with other HECT domains: SEC, monoubiquitinated compound, HUWE1^HECT signal normalized to 1. As to the method:
HUWE1^HECT multi-turnover ubiquitination reactions were performed with 500 nM UBA1, 5 μM UBE2L3, 5 μM HUWE1^HECT and 100 μM Ub in 20 mM HEPES (pH 7.5), 100 mM NaCl and 0.5 mM TCEP in the presence of 1 mM ATP and 3 mM MgCl2. After 15 min incubation at 30 °C, the mixture was injected into a Superdex 75 Increase 3.2/300 column (Cytiva), equilibrated in 25 mM HEPES (pH 7.5), 100 mM NaCl, and 0.5 mM TCEP at 4 °C. Chromatograms were analyzed and peaks integrated with Unicorn v.7.9.02440 (Cytiva). Data were plotted with Prism v.9.3.1 (GraphPad).
Intact protein LC/MS: protein molecular weights (MWs) were determined by LC/MS on a nanoflow chromatography system (Dionex U3000 nanoRSLC), hyphenated to a hybrid quadrupole/orbitrap mass spectrometer (Q Exactive HF) with a NanoFlex ion source and controlled by Xcalibur v.2.4 (all Thermo Fisher Scientific). Proteins were dissolved in 2% (v/v) acetonitrile (ACN), 0.1% (v/v) formic acid (FA) to a concentration of 100 fmol μL^−1. For each analysis, 500 fmol were enriched on a pre-column (0.15 ×20 mm, Reprosil-Pur120 C18-AQ 5 μm; Dr. Maisch GmbH) and separated on an analytical RP-C18 column (0.075 mm×200 mm, Reprosil-Pur 120 C18-AQ; 1.9 μm, Dr. Maisch GmbH), using a 23-min linear gradient of 10–80% (v/v) ACN/0.1% (v/v) FA at 300 nl min^−1. MS data were acquired in full MS mode across the 500–1800 m/z-range at a resolution setting of 120,000 FWHM, an AGC target of 1*10e6 and a maximum fill time of 200 ms. Charge state deconvolution and MW representation were performed in Freestyle v.1.9 (Thermo Fisher Scientific), using default settings for high-resolution data.

In the next series the test system is colorectal cancer cells. On the set-up: method as in PMID 25253726. As to conditions: cited from earlier work.
On the set-up of series [3]: method as in PMID 25253726. As to conditions: cited from earlier work.

T1 sequence (Q7Z6Z7 whole entry): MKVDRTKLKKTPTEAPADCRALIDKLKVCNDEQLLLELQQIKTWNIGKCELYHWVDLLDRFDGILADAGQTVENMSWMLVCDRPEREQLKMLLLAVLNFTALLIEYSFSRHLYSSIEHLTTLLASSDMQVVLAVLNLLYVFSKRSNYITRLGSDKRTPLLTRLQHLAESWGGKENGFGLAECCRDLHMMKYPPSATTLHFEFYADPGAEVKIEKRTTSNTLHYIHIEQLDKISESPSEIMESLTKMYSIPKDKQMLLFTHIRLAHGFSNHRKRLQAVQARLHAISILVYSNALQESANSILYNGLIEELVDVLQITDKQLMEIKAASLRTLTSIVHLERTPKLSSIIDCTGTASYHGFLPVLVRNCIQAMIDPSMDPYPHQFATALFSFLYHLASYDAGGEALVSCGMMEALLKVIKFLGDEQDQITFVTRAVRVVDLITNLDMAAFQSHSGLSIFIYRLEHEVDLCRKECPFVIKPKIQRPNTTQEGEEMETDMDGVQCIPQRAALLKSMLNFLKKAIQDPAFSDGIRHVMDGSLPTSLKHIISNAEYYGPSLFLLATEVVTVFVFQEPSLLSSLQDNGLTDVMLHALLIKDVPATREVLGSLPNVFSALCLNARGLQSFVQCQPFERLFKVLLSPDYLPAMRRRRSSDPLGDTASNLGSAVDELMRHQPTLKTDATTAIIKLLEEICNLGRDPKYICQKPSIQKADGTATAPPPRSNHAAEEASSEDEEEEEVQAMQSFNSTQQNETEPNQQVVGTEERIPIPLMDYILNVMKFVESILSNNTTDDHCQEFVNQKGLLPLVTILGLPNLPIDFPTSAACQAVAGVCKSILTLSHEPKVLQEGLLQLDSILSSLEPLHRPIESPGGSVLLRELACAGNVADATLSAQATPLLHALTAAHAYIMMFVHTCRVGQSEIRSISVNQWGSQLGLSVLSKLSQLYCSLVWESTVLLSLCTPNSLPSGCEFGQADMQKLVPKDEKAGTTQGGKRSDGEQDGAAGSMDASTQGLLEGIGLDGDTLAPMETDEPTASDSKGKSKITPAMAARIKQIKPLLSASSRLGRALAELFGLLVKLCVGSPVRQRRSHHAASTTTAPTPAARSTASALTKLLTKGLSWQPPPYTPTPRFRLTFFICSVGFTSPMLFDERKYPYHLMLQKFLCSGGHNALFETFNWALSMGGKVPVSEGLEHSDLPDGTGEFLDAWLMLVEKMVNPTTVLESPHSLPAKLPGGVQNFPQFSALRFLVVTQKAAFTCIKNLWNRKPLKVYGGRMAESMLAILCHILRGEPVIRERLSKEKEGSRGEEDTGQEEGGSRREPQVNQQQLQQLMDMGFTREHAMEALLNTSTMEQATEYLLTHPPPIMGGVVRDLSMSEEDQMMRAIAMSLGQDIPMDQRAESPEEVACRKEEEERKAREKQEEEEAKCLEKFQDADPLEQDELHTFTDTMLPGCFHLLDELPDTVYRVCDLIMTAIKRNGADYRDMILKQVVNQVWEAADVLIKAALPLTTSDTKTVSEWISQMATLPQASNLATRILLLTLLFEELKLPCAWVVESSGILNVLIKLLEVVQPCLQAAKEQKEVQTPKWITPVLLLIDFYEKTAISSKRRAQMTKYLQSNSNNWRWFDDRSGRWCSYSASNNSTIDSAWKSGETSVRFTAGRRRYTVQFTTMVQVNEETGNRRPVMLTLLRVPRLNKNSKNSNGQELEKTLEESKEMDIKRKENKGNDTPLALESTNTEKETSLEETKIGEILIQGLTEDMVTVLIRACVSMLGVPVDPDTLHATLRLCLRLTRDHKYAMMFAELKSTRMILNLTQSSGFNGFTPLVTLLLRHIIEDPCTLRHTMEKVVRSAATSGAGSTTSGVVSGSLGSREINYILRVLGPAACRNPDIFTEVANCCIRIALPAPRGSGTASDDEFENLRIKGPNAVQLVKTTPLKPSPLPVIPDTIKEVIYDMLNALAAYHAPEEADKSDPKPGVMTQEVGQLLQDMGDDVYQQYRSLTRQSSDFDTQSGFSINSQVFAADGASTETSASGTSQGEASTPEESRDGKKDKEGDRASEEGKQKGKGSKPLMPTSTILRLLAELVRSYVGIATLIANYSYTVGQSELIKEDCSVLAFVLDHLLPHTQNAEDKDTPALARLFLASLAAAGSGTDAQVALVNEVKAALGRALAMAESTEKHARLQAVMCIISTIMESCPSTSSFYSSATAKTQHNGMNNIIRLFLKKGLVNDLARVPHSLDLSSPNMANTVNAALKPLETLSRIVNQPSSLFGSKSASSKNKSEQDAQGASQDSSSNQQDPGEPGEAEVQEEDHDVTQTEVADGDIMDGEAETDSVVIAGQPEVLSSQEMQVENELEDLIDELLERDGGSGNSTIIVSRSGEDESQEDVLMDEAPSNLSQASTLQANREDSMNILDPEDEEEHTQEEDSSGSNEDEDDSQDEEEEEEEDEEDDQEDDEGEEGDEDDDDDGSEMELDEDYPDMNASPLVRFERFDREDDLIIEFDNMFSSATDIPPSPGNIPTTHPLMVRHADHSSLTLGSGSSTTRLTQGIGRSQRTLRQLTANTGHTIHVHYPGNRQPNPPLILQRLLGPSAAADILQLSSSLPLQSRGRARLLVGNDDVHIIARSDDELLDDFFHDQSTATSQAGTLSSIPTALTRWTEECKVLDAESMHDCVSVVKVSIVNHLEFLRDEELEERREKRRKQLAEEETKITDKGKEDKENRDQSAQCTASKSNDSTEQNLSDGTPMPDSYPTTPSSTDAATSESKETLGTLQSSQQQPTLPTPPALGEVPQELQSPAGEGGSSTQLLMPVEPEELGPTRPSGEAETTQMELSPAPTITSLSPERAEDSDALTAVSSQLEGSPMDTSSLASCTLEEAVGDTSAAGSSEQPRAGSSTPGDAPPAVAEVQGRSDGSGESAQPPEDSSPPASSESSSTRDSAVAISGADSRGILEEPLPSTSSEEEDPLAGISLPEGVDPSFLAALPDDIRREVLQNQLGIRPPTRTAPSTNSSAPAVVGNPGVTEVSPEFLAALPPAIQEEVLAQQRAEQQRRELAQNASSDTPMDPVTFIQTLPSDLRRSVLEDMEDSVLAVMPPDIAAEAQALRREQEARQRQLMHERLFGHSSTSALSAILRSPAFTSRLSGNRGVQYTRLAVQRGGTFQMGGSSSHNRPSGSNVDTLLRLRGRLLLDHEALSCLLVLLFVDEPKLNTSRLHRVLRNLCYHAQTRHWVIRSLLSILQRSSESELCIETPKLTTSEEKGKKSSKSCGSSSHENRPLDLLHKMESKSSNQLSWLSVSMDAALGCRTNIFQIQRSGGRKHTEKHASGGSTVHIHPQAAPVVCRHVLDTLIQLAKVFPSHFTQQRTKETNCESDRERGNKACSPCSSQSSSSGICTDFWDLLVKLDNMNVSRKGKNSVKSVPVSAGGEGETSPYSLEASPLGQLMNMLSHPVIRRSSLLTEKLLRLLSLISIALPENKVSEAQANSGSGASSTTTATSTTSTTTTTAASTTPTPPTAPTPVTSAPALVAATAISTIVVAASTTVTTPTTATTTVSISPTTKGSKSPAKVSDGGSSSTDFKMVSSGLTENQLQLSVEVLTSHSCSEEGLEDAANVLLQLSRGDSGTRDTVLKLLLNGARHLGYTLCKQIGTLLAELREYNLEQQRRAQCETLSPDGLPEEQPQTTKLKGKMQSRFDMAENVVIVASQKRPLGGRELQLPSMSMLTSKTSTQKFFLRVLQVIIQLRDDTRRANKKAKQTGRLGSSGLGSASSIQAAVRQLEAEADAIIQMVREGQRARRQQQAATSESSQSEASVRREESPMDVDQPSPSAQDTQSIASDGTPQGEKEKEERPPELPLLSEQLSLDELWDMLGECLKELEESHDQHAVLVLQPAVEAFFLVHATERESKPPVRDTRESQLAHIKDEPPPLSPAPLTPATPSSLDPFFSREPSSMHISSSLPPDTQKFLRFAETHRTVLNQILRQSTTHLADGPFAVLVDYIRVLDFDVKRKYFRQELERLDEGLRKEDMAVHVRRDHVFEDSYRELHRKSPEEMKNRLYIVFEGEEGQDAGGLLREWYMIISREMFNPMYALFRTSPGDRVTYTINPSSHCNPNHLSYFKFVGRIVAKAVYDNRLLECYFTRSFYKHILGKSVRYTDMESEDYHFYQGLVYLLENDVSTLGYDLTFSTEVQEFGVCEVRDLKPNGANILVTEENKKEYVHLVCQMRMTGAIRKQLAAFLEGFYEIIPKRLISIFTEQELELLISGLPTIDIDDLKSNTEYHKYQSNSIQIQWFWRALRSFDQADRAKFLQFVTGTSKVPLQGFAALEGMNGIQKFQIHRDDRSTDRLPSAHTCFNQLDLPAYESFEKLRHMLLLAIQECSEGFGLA

Broadly, the IC50 is the concentration that inhibits the measured activity by half. Consider `Cc1c(C(=O)Nc2ccc(CN)cc2)ncnc1N1CCC(C#N)(c2ccccc2)CC1` [BI8622], for which, at HUWE1^FL, the “Inhibition of HUWE1^FL protein ubiquitination activity (E3 autoubiquitination, free Ub chain formation)” value is on record as “inhibit the protein ubiquitination activity of the ligase in a dose-dependent manner”. Also, the IC50 in the series with HUWE1^HECT [1] was 3100 nM. For the same molecule, on HUWE1^HECT [2] (20 μM compound), the “Compound ubiquitination by HUWE1^HECT (SEC, intact protein MS)” value is recorded as “assigned to the respective monoubiquitinated compound by intact protein MS”. Besides, the “Inhibitor ubiquitination activity of HUWE1^HECT compared with other HECT domains” value at HUWE1^HECT [2] is given as “substantially higher activity for HUWE1^HECT than for the other HECT domains”. In the series with colorectal cancer cells, the Cytotoxic effects entry is given as “selective cytotoxic effects”. For the same molecule, the Pharmacokinetic properties result in series [3] is reported as “do not allow for in vivo applications”.
As for `NCc1cccc(CNc2ncnc3c(N4CCN(Cc5ccccc5)CC4)ncnc23)c1` [BI8626], on HUWE1^FL, the “Inhibition of HUWE1^FL protein ubiquitination activity (E3 autoubiquitination, free Ub chain formation)” value is “inhibit the protein ubiquitination activity of the ligase in a dose-dependent manner”. Moreover, the IC50 with HUWE1^HECT [1] was 900 nM. At HUWE1^HECT [2] (20 μM compound), the “Compound ubiquitination by HUWE1^HECT (SEC, intact protein MS)” value was “assigned to the respective monoubiquitinated compound by intact protein MS”. Also, the “Compound ubiquitination by HUWE1^HECT (SEC)” value at HUWE1^HECT [2] (20 μM compound, UbΔGG (residues 1–74) instead of WT Ub) is recorded as “No compound ubiquitination occurred”. Also, the “Inhibitor ubiquitination activity of HUWE1^HECT compared with other HECT domains” value on HUWE1^HECT [2] is “substantially higher activity for HUWE1^HECT than for the other HECT domains”. In addition, the Cytotoxic effects result with colorectal cancer cells is reported as “selective cytotoxic effects”. In addition, the Pharmacokinetic properties entry in series [3] is “do not allow for in vivo applications”.
